“And” between values parts separate entries of the source, which are not always exact repeats. Identical values can stand only once.
System: MCF7 multi-cell spheroids with HUVEC/MSC, viability
Experiment: Anticancer human tumor MCF7 cell line growth inhibition [IpAb];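 also: spheroids exposed to agents for seven days before readout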
Conditions: for viability, T/C: stronger effect = lower value
Excerpt: Combinatorial screen of targeted agents with ipatasertib and abemaciclib in multi-cell type tumor spheroids
A high-throughput screen of multi-cell type tumor spheroids was designed to identify active combinations of targeted small molecules and ipatasertib or abemaciclib. Complex spheroids include a stromal component modeled by human endothelial cells (HUVEC) and fibroblasts modeled by human mesenchymal stem cells (MSCs). The concentration ranges selected for each drug and investigational agent were based upon clinically achievable concentrations if the clinical Cmax of the agent was known.
Compounds. The drugs and investigational agents: ipatasertib (NSC767898), abemaciclib(NSC768073), selumetinib (NSC741078), trametinib (758246), adavosertib (NSC754352), everolimus (NSC733504), sapanisertib (NSC764658), vemurafenib (NSC761431), venetoclax (NSC766270), copanlisib (NSC809693), apelisib (NSC765974), palbociblib (NSC758247), vemurafenib (NSC761431), dabrafenib (NSC764134), ravoxertinib (NSC781343), BMS-387032 (NSC767048), sotorasib (NSC818433), talazoparib (NSC767125) and afursertib (NSC778305), were obtained from the National Cancer Institute (NCI) Developmental Therapeutics Program Chemical Repository. The FDA-approved anticancer drug set is available from the NCI Developmental Therapeutics Program. […] The stock solutions were prepared in dimethyl sulfoxide (DMSO, Sigma-Aldrich, St. Louis, MO, cat. D2650) at 800-fold the tested concentration and stored at -70 degrees C prior to their use. All drugs and investigational agents were tested over a range starting from a high concentration at or near the clinical Cmax and decreasing in half-log increments. If the clinical Cmax for an agent had not been determined, the highest concentration tested was 10 microM.
NCI60 Cell Culture. NCI60 cell lines were obtained from the NCI Developmental Therapeutics Program Tumor Repository. For each lot of cells, the Repository performed Applied Biosystems AmpFLSTR Identifiler testing with PCR amplification to confirm consistency with the published Identifier STR profile for each cell line. Cells were kept in continuous culture for no more than 20 passages. The optimal seeding densities for each of the cell lines at each time point assessed were determined prior to performing the concentration response studies. Briefly, the NCI60 human tumor lines were grown as monolayers in RPMI 1640 medium supplemented with 10% FBS and 2 mmol/L L-glutamine.
An additional 9 lines were from the NCI60 cell line panel including MDA-MB-231 breast carcinoma, MDA-MB-468 breast carcinoma, MCF7 breast carcinoma, Hs578T breast carcinoma, MALME-3M melanoma, SK-MEL-2 melanoma, SK-OV-3 ovarian carcinoma, DU-145 prostate carcinoma, PC-3 prostate carcinoma, all cell lines along with major genetic alterations are listed on Table 2. Pooled donor human umbilical vein endothelial cells (HUVEC, Lonza, cat. CC-2519) and human mesenchymal stem cells (hMSC, Lonza, cat. PT-2501) were purchased from Lonza (Walkersville, MD).
PDMR cell lines were grown in complete medium (DC medium): Dulbecco's modified Eagle's medium (DMEM)/F12 supplemented with 5% fetal bovine serum (FBS), 2 mM L-glutamine, 100 U/mL penicillin and 100 µg/ml streptomycin, 0.4 µg/ml hydrocortisone, 10 ng/ml epidermal growth factor (EGF) recombinant human protein, 24 µg/mL adenine, and 0.1 mg/mL primocin. During culture from frozen stock vials, PDMR cells were cultured in the same medium containing 10 µM Y-27632 (see Table 3). The PDCs were cultured in complete DMEM/F12 media without 10 microM Y-27632 dihydrochloride for at least two passages prior to the screen. The pooled donor HUVEC and hMSC were cultured in endothelial cell growth medium 2 (PromoCell, Heidelberg, Germany, cat. C-22011) and mesenchymal stem cell growth medium 2 (PromoCell, cat. C-28009), respectively. For all experiments, HUVEC and hMSC were used at passages </=5.
[…]

| SMILES | viability, T/C (compound 0.0316 µM) | viability, T/C (compound 0.1 µM) | viability, T/C (compound 0.316 µM) | viability, T/C (compound 1 µM) | viability, T/C (compound 3.16 µM) | viability, T/C (compound 10 µM) | IC50 (curve of compound) | viability, T/C (compound 0.01 µM) | also measured |
| --- | --- | --- | --- | --- | --- | --- | --- | --- | --- |
| C=CC(=O)N1CCN(c2nc(=O)n(-c3c(C)ccnc3C(C)C)c3nc(-c4c(O)cccc4F)c(F)cc23)C(C)C1 (stereo not drawn) | 98.6% and 117% | 106% | 102% and 121% | 103% and 107% | 107% and 83.4% | 71.2% and 76.7% | > 10000 nM | – | – |
| C=CCn1c(=O)c2cnc(Nc3ccc(N4CCN(C)CC4)cc3)nc2n1-c1cccc(C(C)(C)O)n1 | 104% and 99.2% | 98.9% and 108% | 58.2% and 76.1% | 34% and 44.2% | 28.5% and 29.7% | 28.2% and 33.6% | 463 nM and 765 nM | – | – |
| CC(=O)c1c(C)c2cnc(Nc3ccc(N4CCNCC4)cn3)nc2n(C2CCCC2)c1=O | – | – | – | – | – | – | > 300 nM | – | viability, T/C (compound 0.000949 µM): 119% and 97.4%; viability, T/C (compound 0.003 µM): 101% and 97.1%; viability, T/C (compound 0.00949 µM): 95.5% and 95.7%; viability, T/C (compound 0.03 µM): 96.1% and 115%; viability, T/C (compound 0.0949 µM): 109% and 95.9%; viability, T/C (compound 0.3 µM): 89.2% and 104% |
| CC(C)(C)c1cnc(CSc2cnc(NC(=O)C3CCNCC3)s2)o1 | – | – | – | – | – | – | 100 nM and 76.7 nM | – | viability, T/C (compound 0.00949 µM): 105% and 109%; viability, T/C (compound 0.03 µM): 100% and 104%; viability, T/C (compound 0.0949 µM): 51.5% and 37.9%; viability, T/C (compound 0.3 µM): 22% and 24.1%; viability, T/C (compound 0.949 µM): 27.4% and 28.2%; viability, T/C (compound 3 µM): 35.6% and 32.6% |
| CC(C)NCC(C(=O)N1CCN(c2ncnc3c2C(C)CC3O)CC1)c1ccc(Cl)cc1 (stereo not drawn) | – | 86.9% [middle of 13 runs] | 75.5% [middle of 13 runs] | 65.3% [middle of 13 runs] | 54.2% [middle of 13 runs] | – | – | – | – |
| CC(C)n1nc(-c2ccc3oc(N)nc3c2)c2c(N)ncnc21 | 42.5% and 29.7% | 25% and 22.1% | – | – | – | – | 25.9 nM and 16.4 nM | 73.5% and 65.5% | viability, T/C (compound 0.000316 µM): 98.9% and 88.3%; viability, T/C (compound 0.001 µM): 86.4% and 81.6%; viability, T/C (compound 0.00316 µM): 80.8% and 82.8% |
| CC1(C)CCC(CN2CCN(c3ccc(C(=O)NS(=O)(=O)c4ccc(NCC5CCOCC5)c([N+](=O)[O-])c4)c(Oc4cnc5[nH]ccc5c4)c3)CC2)=C(c2ccc(Cl)cc2)C1 | 88.4% and 102% | 102% and 108% | 97.2% and 109% | 94.4% and 98.2% | 84.6% and 98.1% | 16.5% and 20.3% | 5680 nM and 6450 nM | – | – |
| CCCS(=O)(=O)Nc1ccc(F)c(C(=O)c2c[nH]c3ncc(-c4ccc(Cl)cc4)cc23)c1F | 102% and 98.6% | 106% and 100% | 102% and 96.2% | 104% and 97% | 99.4% and 93.1% | 105% and 97.9% | > 10000 nM | – | – |
| CCN1CCN(Cc2ccc(Nc3ncc(F)c(-c4cc(F)c5nc(C)n(C(C)C)c5c4)n3)nc2)CC1 | 101% [middle of 13 runs] | – | – | – | – | – | – | 97.5% [middle of 13 runs] | IC50 (compound alone, run of 06/01/2021): > 1000 nM |
| COc1c(OCCCN2CCOCC2)ccc2c3n(c(=NC(=O)c4cnc(N)nc4)nc12)CCN3 | 64.7% and 59.9% | 32% and 36.9% | 14% and 10.5% | 14.2% and 13.4% | – | – | 51.9 nM | 80.2% and 84.9% | viability, T/C (compound 0.00316 µM): 89.3% and 87.5% |

— PubChem BioAssay AID2060329 (Molecular Pharmacology Branch, DTP, NCI, 2025)
